Target: T1, PI3Kα G106V mutant (Homo sapiens, UniProt P42336, G106V)
T1 construct: Full-length human p110α was expressed either in a complex with full-length human p85α (for HTS, biochemistry and HDX-MS); 6xHis tag followed by TEV protease site (N); host or cells: Sf9, baculovirus
Assay: ADP-Glo catalytic activity, oncogenic mutant G106V
Type: biochemical
Experimental: Expression and purification of wild-type p110α (Cambridge MRC Laboratory for Molecular Biology (LMB-MRC) plasmid number OP831) in a complex with full-length p85α (LMB-MRC plasmid OP809) was performed as described. The oncogenic mutants G106V (LMB-MRC plasmid JB35), N345K (LMB-MRC plasmid OP661) and E545K (LMB-MRC plasmid OP663) were also purified using this protocol. Briefly, 10 litres of Spodoptera frugiperda (Sf9) cell culture at a density of 1.0 x 10^6 cells/ml were co-infected with a p85α-encoding virus [LMB-MRC plasmid OP809]. and a virus encoding p110α with an N-terminal 6xHis tag followed by a tobacco etch virus (TEV) protease site [LMB-MRC plasmid OP831]. After a 48 h infection at 27°C, cells were harvested and washed with PBS. […]
For characterisation of the effects of 1938 on in vitro PI3K enzymology, all reactions were performed at room temperature with 384 white-polystyrene plates (Corning #3574). […] Data was expressed as velocity (nmol of ADP generated/nmol of enzyme/sec). […] Luminescence was read using a PHERAstar® plate reader with software version 5.41, and analyses were performed using GraphPad Prism 8/9.

T1 sequence (P42336 whole entry G106V): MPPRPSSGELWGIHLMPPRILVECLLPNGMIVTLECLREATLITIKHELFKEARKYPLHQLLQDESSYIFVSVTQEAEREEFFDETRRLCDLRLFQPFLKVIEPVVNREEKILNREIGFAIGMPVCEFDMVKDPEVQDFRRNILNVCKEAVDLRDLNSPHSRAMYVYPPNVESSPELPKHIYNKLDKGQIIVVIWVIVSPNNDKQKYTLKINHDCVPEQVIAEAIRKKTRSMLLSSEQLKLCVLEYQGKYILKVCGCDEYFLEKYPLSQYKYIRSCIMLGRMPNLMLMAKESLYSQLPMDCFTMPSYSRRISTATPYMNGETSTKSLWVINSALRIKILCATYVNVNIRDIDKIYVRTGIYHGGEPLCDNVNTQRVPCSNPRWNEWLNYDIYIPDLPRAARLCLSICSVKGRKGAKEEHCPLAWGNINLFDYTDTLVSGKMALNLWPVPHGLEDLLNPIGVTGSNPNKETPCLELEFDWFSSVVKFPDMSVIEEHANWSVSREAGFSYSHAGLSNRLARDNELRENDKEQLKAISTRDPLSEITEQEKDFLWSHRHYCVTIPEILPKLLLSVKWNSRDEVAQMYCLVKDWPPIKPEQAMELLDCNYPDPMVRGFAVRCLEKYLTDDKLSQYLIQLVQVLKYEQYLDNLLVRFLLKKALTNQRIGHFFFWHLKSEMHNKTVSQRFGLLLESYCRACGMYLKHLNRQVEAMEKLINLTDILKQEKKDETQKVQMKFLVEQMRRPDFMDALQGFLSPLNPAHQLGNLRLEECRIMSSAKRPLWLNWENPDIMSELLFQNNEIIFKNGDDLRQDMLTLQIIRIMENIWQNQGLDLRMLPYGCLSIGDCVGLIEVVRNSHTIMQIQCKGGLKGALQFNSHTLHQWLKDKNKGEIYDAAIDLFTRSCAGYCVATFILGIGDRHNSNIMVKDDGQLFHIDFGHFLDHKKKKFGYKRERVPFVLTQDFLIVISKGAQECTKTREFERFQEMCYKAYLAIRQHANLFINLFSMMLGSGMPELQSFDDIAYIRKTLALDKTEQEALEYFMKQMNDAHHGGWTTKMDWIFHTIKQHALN
T1 sequence (P27986 whole entry partner): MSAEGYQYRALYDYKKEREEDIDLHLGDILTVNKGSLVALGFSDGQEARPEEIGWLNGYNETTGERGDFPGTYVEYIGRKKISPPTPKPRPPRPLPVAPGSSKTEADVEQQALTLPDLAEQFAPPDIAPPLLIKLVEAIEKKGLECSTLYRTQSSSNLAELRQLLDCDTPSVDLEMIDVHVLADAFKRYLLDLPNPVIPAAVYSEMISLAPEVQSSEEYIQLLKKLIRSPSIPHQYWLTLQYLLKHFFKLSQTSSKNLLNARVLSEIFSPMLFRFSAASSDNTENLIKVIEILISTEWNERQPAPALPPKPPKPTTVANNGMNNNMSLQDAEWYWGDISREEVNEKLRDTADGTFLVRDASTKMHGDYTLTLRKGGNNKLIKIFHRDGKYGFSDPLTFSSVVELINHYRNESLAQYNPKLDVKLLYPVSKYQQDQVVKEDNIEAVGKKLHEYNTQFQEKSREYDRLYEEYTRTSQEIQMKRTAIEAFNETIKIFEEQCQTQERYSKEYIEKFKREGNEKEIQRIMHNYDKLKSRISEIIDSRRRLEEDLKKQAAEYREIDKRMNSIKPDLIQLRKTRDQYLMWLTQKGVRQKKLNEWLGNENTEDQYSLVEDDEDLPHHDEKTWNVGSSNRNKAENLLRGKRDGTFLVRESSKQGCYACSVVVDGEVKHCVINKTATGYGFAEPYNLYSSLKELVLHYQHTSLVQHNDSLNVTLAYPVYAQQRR

CCN1CCN(c2ccc(Nc3cc(Nc4cccc5c4N(C(C)=O)CC5)ccn3)cc2)CC1 [Compound 1938]
activation of G106V mutant: levels comparable with stimulation with pY

From publication PMC7614683, “A small molecule PI3Kα activator for cardioprotection and neuroregeneration” (Nature, 2023)
